The results in this text go back to publication PMC10009755, “Discovery and Characterization of BAY-805, a Potent and Selective Inhibitor of Ubiquitin-Specific Protease USP21” (Journal of Medicinal Chemistry, 2023).

Each structure is given as a SMILES string. ≈ marks a conversion by molar mass, not a printed value. Where two headings read alike, the source gives them in different places.

The nature of one data set: log D measurement (HPLC). It is filed as physicochemical. The conditions noted are these: reverse-phase HPLC, pH 7.5, pH 7.5, HPLC method; read-out: logD7.5. The method, then: log D values at pH 7.5 were recorded using an indirect method for determining hydrophobicity constants by reverse-phase HPLC. A series of compounds with well-known log D values were used for calibration. Test compounds were injected into the same HPLC system. The lipophilicity of compounds was then assessed by comparison to the calibration curve.

The nature of a further data set: Aqueous solubility. Format: physicochemical. The conditions noted are these: PBS pH 6.5, pH 6.5, PBS pH 6.5. The method, then:
Test compounds were applied as DMSO solutions or directly from powder. After the addition of the buffer, solutions were shaken at rt for 24 h. The undissolved material was removed by filtration or centrifugation. The compound dissolved in the supernatant was quantified by HPLC-UV or HPLC-MS/MS.

The next data set can be described thus: in vitro. It is filed as in vitro ADME. The following applies: human, Caco-2, pH 7.2. As for the experimental part: Caco-2 cells [purchased from the German Collection of Microorganisms and Cell Cultures (DSMZ)] were seeded at a density of 4.5 × 10^4 cells/well on 24-well insert plates [0.4 μm pore size, 0.3 cm^2 (Costar)] and grown for 13–15 days in DMEM medium supplemented with 10% fetal calf serum (FCS), 1% GlutaMAX (100×, Gibco), 100 U/mL penicillin, 100 μg/mL streptomycin (Gibco), and 1% nonessential amino acids (100×, Thermo Fischer Scientific). […] The medium was changed every 2–3 days.
The bidirectional transport assay for the evaluation of Caco-2 permeability was undertaken in 24-well insert plates using a robotic system (Tecan). Before the assay was run, the culture medium was replaced by a transport medium (FCS-free HEPES carbonate transport buffer pH 7.2). For the assessment of monolayer integrity, the transepithelial electrical resistance (TEER) was measured. Only monolayers with a TEER of at least 400 Ω·cm^2 were used. Test compounds were pre-dissolved in DMSO and added either to the apical or basolateral compartment at a final concentration of 2 μM. The evaluation was performed in triplicate. […] The efflux ratio (ER) basolateral (B) to apical (A) was calculated by dividing Papp B–A by Papp A–B.

For the next data set, the system named is NF-κB activation. Put plainly: NF-κB reporter assay. Format: cell-based. The conditions noted are these: HEK293T cells, up to 10 μM. The method, then:
Yang and colleagues reported that USP21 inhibition induces NF-κB activation by preventing deubiquitination of RIP1.[15] K63 ubiquitinated RIP1 is required for NF-κB activation, and thus USP21-mediated deubiquitination of RIP1 shuts down the NF-κB pathway.
Four hours after replating, cells were treated with compounds or DMSO (note: DMSO concentrations were kept consistent across all cells). Promega Dual-Luciferase Reporter Assay kit was then used to prepare samples for Firefly and Renilla signal measurement on a CLARIOstar microplate reader (BMG) 20 h after compound treatment. Relative luciferase units were calculated by normalizing the Firefly signal to the background Renilla signal, followed by normalization to DMSO controls of wild-type USP21.

Data set [1] addresses T1, C-terminal HiBiT-tagged USP21 (Homo sapiens, UniProt Q9UK80).
T1 construct: expressed in transfected cells; host or cells: HEK293T
T1 sequence (Q9UK80 1-565): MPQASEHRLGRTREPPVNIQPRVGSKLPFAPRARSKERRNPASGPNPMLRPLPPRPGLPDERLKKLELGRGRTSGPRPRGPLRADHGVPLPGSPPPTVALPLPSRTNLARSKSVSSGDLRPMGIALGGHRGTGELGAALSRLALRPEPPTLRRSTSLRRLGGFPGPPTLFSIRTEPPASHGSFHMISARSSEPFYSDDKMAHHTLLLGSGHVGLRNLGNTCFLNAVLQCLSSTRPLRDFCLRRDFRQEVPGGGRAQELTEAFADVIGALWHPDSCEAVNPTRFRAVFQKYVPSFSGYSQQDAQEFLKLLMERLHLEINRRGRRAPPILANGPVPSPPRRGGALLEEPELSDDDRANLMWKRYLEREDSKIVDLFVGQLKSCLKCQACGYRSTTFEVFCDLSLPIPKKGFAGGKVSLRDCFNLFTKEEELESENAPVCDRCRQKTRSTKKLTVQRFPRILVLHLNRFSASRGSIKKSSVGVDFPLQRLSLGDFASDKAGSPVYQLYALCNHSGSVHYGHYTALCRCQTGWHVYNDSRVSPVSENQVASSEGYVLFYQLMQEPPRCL
Description: USP21 HiBiT CETSA. It is filed as cell-based. The conditions noted are these: 49 °C, HEK293T cells. The method, then: In particular, we utilized a HiBiT CETSA assay format[42],[43] conducted in intact HEK293T cells. Cells were transfected with USP21 fused to a small proluminescent NanoLuc HiBiT tag, which, when complemented with the Large BiT NanoLuc fragment, produces a quantifiable luminescence signal.
HEK293T cells were seeded in a six-well plate at 8 × 10^5 cells/well in 2 mL of DMEM supplemented with 10% FBS, penicillin (100 U/mL), and streptomycin (100 μg/mL) and transfected 4 h after seeding using an X-tremeGENE HP transfection reagent, following the manufacturer’s instructions with a total of 2 μg of plasmid constructs (C-terminally tagged USP21 HiBiT and empty pCDNA3.1 vector). […] The breathable paper adhesive film was then replaced with a PCR adhesive film, and cells were heated at indicated temperatures in an Applied Biosystems VeritiPro thermal cycler for 3 min, followed by 3 min incubation at rt before the addition of LgBiT solution (200 nM LgBiT, 2% NP-40, protease inhibitors (Roche cOmplete, ethylenediaminetetraacetic acid (EDTA)-free Protease Inhibitor) in OptiMEM no phenol red (Gibco)) to lyse cells.

The target in data set [2] is T2, USP21 (Homo sapiens, UniProt Q9UK80).
T2 sequence (Q9UK80 1-565): T1 sequence (Q9UK80 1-565)
Description: The final assay volume was 6 μL. […] First, 2 μL of 1 nM USP21 (or selectivity enzyme) solution was added to the compound plate and preincubated for 15–20 min at room temperature. […] The reaction was stopped by 50 mM citric acid in 25 mM HEPES, pH 7.5, containing 0.01% BSA. […] The USP21 and USP22 were measured with five flashes and USP2 and USP7 in fly mode.

Data set [3] deals with T2, USP21. Description: biochemical.
Description: To this end, we developed a USP21 activity assay that is based on the deubiquitination of a STING-derived peptide (a USP21-specific substrate[17],[18]) by purified recombinant human full-length USP21 using time-resolved fluorescence resonance energy transfer (TR-FRET) technology (referred to as a homogeneous time-resolved fluorescence (HTRF)-assay, for details see the Supporting Information).[39]
All substrate and enzyme solutions were diluted in an assay buffer. […] Incubation time was 15–20 min at room temperature. […] The stop solution (DUB inhibitor PR619, Abcam) was prepared in 25 mM HEPES, pH 7.5 (Alfa Aesar) containing 0.01% BSA and then left for 10 min at room temperature before filtering with a 0.2 μM PES Membrane (Thermo Fisher). The reaction was stopped with the addition of 2 μL of 200 μM PR619. […] The plates were measured on the ViewLux in screening or PHERAstar FSX in compound profiling. […] The number of flashes per well was set to 3. All of the experimental data were plotted using Genedata analysis. The Z′-factor and S/B of the assay were >0.7 and ∼2, respectively.

As to `N#Cc1ccc(Cc2nnc(NC(=O)[C@H](NC(=O)C3(C(F)(F)F)CCCCC3)C3CCCC3)s2)cc1` [Compound 20, FC(F)(F)C1(CCCCC1)C(=O)N[C@H](C2CCCC2)C(=O)Nc3nnc(Cc4ccc(cc4)C#N)s3], the chromatographic logD in the data set “log D measurement (HPLC)” came out at 3.7. The same molecule yielded a solubility at 24 h in “Aqueous solubility” of 1.33 µM (≈ 0.691 µg/mL). The Papp A→B at 2 h, 2 µM in “in vitro” (2 μM, 2 h) was 3.4 ×10⁻⁶ cm/s. Also, the efflux ratio at 2 h, 2 µM in “in vitro” (Papp B–A / Papp A–B, read-out: Caco-2 efflux ratio (ER)) was 0.7. Further, the “NF-κB activation (in words)” value with NF-κB activation is on record as “significant NF-κB activation levels”. Further, the “cellular thermal stabilization of USP21 (in words)” value in data set [1] is reported as “Strong thermal stabilization of USP21”. For the same molecule, the figures for the half-maximal inhibitory concentration (IC50) against USP21 [2] and against USP21 [3] were 8 nM and 13 nM, respectively.
